In publication PMC11589570, “Critical assessment of LC3/GABARAP ligands used for degrader development and ligandability of LC3/GABARAP binding pockets” (Nature Communications, 2024):

Columns and labels:
[1] = tested on: live cells of the growth assay; assay: Analysis of images of the live cell growth assay (cell morphology); assay type: cell-based; conditions: consistent with G2/M arrest
Experimental: Using RPE1 and U2OS cells, cell growth was monitored in live cells over a time course of 72 h after treatment with the respective compounds.
Cell growth assay: Cell confluence (phase) from RPE1 (hTERT RPE-1, ATCC CLR_4000) or U2OS (ATCC, HTB-96) cell lines were monitored over time with the IncuCyte S3 (Sartiorius, Germany) in 384-well plates in 50 ul DMEM media, supplemented with 10% Fetal Bovine Serum (FBS) 1% penicillin/Streptomycin and incubated 24 h before treatment. […] Cell confluence is represented as % of area covered by cells. Each data point represents the average ratio or confluence obtained from three individual wells of the plate.

[2] = molecular target: T1, NanoLuc-fusion full-length LC3B (Homo sapiens, UniProt Q9GZQ8); assay: NanoBRET cellular target engagement assay in HEK293T cells; assay type: cell-based; conditions: LC3B; 1 µM tracer; compound 4 for tracer 16, compound 3 for tracer 17
T1 construct: a fluorescent donor (in this case full length LC3A and LC3B); expressed in transfected cells; host or cells: HEK293T (ATCC; CRL-11268)
Experimental: (§1) NanoBRET cellular target engagement assay: Constructs contained the cDNA of full-length LC3A and LC3B cloned in frame with an N-terminal NanoLuc-fusion. Plasmids were transfected into HEK293T (ATCC; CRL-11268) cells using FuGENE HD (Promega, E2312) and proteins were allowed to express for 20 h. 10O5 and 8F20-based tracers were titrated to the protein as depicted in Supplementary Fig. 4d. For competition experiments, 1 µM of the tracers was pipetted into white 384-well plates (Greiner 781 207) using an Echo 550 acoustic dispenser (Labcyte) containing LC3A/LC3B expressing transfected cells at a density of 2.5 × 10^5 cells/mL in Opti-MEM without phenol red (Life Technologies). The system was allowed to equilibrate for 2 h at 37 °C and 5% CO2 prior to BRET measurements. To measure BRET, NanoBRET NanoGlo Substrate + Extracellular NanoLuc Inhibitor (Promega, N2540) was added as per the manufacturer’s protocol, and filtered luminescence was measured on a PHERAstar plate reader (BMG Labtech) equipped with a luminescence filter pair (450 nm BP filter (donor) and 610 nm LP filter (acceptor)). Competitive displacement data were then plotted using GraphPad Prism 9.3 software using a normalized 3-parameter curve fit. A detailed step-by-step protocol for this assay is described in Schwalm..

[3] = molecular target: T2, NanoLuc-fusion full-length LC3A (Homo sapiens, UniProt Q9H492); assay: as above; assay type: cell-based; conditions: LC3A; 1 µM tracer; compound 4 for tracer 16, compound 3 for tracer 17
T2 construct: a fluorescent donor (in this case full length LC3A and LC3B); expressed in transfected cells; host or cells: HEK293T (ATCC; CRL-11268)
Experimental: as §1

LC3A = LC3A (Homo sapiens, UniProt Q9H492); assay: FP assay with 10O5- and 8F20-based dye-linked tracers 16 and 17; conditions: LC3A; compound 3 for tracer 17, compound 4 for tracer 16
Text: The only experimental difference in our FP assay setup was the addition of 0.05% Tween-20, which is routinely used[27] to suppress unspecific binding of compounds to proteins.
Fluorescence polarization assay utilizing tracers 16 and 17 for interaction studies with LC3A
(upper panels) and LC3B (lower panels). The left panels depict protein titration measurements
detergent in the buffer to suppress unspecific binding. Middle panels depict displacement
Data were collected in technical
triplicates with error bars expressing the SD (n=3).

[4] = Cell viability measurements; assay type: cell-based; design: Cell viability: scale not given here; conditions: two replicate columns
Text: 1 Source data for Supplementary Fig. 8a-f are provided as a Source Data file.

Compound	NanoBRET signal / tracer displacement [2]	NanoBRET signal / tracer displacement [3]	displacement of dye-linked tracer by parent compound (LC3A)	viability at 20 µM ([4]; log concentration [M] -4.69897)	viability at 7.5 µM ([4]; log concentration [M] -5.12494)	viability at 2.5 µM ([4]; log concentration [M] -5.60206)	viability at […] ([4]; log concentration [M] -6.00436)	viability at 0.3 µM ([4]; log concentration [M] -6.52288)	viability at 0.125 µM ([4]; log concentration [M] -6.90309)	viability at 0.05 µM ([4]; log concentration [M] -7.30103)	viability at 0.01625 µM ([4]; log concentration [M] -7.78915)	viability at […] ([4]; log concentration [M] -8.06399)	viability at 0.005 µM ([4]; log concentration [M] -8.30103)	viability at 0.0021 µM ([4]; log concentration [M] -8.67778)	also measured
Cc1ccc(C(=O)N(CCCN)[C@@H](c2nc3cc(Cl)ccc3c(=O)n2Cc2ccccc2)C(C)C)cc1 [compound 3, (R)-N-(3-aminopropyl)-N-(1-(3-benzyl-7-chloro-4-oxo-3,4-dihydroquinazolin-2-yl)−2-methylpropyl)−4-methylbenzamide]	No displacement	No displacement	no displacement	0.689%	91.3%	96.5%	93.4%	103%	105%	102%	96.5%	103%	99.5%	99.1%	cell morphology in live cell images [1]: increased number of rounded cells; Cell viability ([4]; log concentration [M] -4.69897, listed as 8F20): 1.283; Cell viability ([4]; log concentration [M] -5.12494, listed as 8F20): 92.2351; Cell viability ([4]; log concentration [M] -5.60206, listed as 8F20): 100.107; Cell viability ([4]; log concentration [M] -6.00436, listed as 8F20): 93.5465; Cell viability ([4]; log concentration [M] -6.52288, listed as 8F20): 93.076; Cell viability ([4]; log concentration [M] -6.90309, listed as 8F20): 93.9495; Cell viability ([4]; log concentration [M] -7.30103, listed as 8F20): 103.3; Cell viability ([4]; log concentration [M] -7.78915, listed as 8F20): 90.0205; Cell viability ([4]; log concentration [M] -8.06399, listed as 8F20): 92.6947; Cell viability ([4]; log concentration [M] -8.30103, listed as 8F20): 91.472; Cell viability ([4]; log concentration [M] -8.67778, listed as 8F20): 90.5247
O=C1Nc2ccc(I)cc2C1=Cc1cc(Br)c(O)c(Br)c1 [compound 4]	No displacement	No displacement	no displacement	104%	94.8%	94.2%	95.7%	104%	101%	103%	101%	103%	99.7%	100%	Cell viability ([4]; log concentration [M] -4.69897, listed as 10O5): 92.5568; Cell viability ([4]; log concentration [M] -5.12494, listed as 10O5): 95.6466; Cell viability ([4]; log concentration [M] -5.60206, listed as 10O5): 97.1871; Cell viability ([4]; log concentration [M] -6.00436, listed as 10O5): 90.9151; Cell viability ([4]; log concentration [M] -6.52288, listed as 10O5): 93.3208; Cell viability ([4]; log concentration [M] -6.90309, listed as 10O5): 92.1984; Cell viability ([4]; log concentration [M] -7.30103, listed as 10O5): 94.2945; Cell viability ([4]; log concentration [M] -7.78915, listed as 10O5): 89.5849; Cell viability ([4]; log concentration [M] -8.06399, listed as 10O5): 99.4914; Cell viability ([4]; log concentration [M] -8.30103, listed as 10O5): 88.3293; Cell viability ([4]; log concentration [M] -8.67778, listed as 10O5): 90.0519
